# Measurements from US4748122A, “2,5-diketo-D-gluconic acid reductase” (Shionogi & Co., Ltd., priority 1983, dated 1988).
# Key:
# [1] = biological target: T1, 25DKG-Rase (Corynebacterium sp., UniProt P15339); test: Spectrophotometric enzymatic activity (decrease in absorption at 340 nm), purified enzyme solution of Example 1; format: biochemical, Corynebacterium sp. No. 20A-77 mutant (FERM-BP 108); settings: for Enzymatic activity: per 1 ml purified enzyme solution
# T1 construct: The enzyme is an intracellular enzyme extracted from the cells of the 2KLG producing strain; made in house; host or cells: natural producer Corynebacterium sp; No. 20A-77 mutant FERM-BP 108, enzyme purified from sonicated cells; not recombinant
# T1 sequence (P15339 2-277 limits assumed): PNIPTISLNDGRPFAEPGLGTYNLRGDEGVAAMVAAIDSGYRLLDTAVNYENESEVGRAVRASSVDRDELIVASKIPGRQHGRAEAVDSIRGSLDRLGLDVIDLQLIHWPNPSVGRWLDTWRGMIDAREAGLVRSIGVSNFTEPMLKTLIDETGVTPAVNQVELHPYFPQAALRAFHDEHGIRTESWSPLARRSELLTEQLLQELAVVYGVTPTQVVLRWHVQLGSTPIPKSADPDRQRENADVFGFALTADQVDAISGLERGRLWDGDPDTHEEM
# [2] = biological target: T1, 25DKG-Rase; format: biochemical, Corynebacterium sp. No. 20A-77 mutant (FERM-BP 108); settings: 10 μl enzyme solution, 25 μmoles substrate, 15 μmoles NADPH, 30° C., 60 minutes; gas chromatography
# [3] = system: 25DKG-Rase derived from Strain K-106; test: Enzymatic activity of 25DKG-Rase obtained from K-106 (Example 2); format: biochemical, Corynebacterium sp. No. K-106 (ATCC 31,088); settings: for Enzymatic activity (relative activity): 100 = activity at pH 7, 30° C.
# Protocol: (§1) Two point nine (2.9) ml of 0.1M TB (pH 7) containing 0.3 μmoles of NADPH was placed in a quartz cubette having 1 cm optical length difference and added 1-5 μl of the enzyme solution obtained above (3) thereto. Then, to the mixture, each 0.1 ml of the various substrate solutions (0.1M) were added while being kept at 30° C. Reactivities of the enzyme on the respective substrates were determined, by means of successive measurement of the decrease in absorption at 340 nm, on the basis of the decrease for 1 minute.
# (§2) The measurements of the physico-chemical properties were conducted in a manner as described in Example 1-(4) (5).
# (§3) Enzymatic activities of 25DKG-Rases obtained from K-106 and T-13 were measured at varying pH from 4 to 9 (substrate: Ca-25DKG, reaction temperature: 30° C.).
# (§4) The enzymatic activities of 25DKG-Rases obtained from K-106 and T-13 were measured at varying temperature (pH 7.0, substrate: Ca-25DKG).
# [4] = system: 25DKG-Rase derived from Strain T-13; test: Enzymatic activity of 25DKG-Rase obtained from T-13 (Example 2); format: biochemical, Corynebacterium sp. No. T-13 (ATCC 31,089); settings: for Enzymatic activity (relative activity): 100 = activity at pH 7, 30° C.
# Protocol: as §1, §2, §3, §4
# [5] = system: 25DKG-Rase derived from Strain K-106; test: Substrate specificity by product formation, enzyme from K-106; format: biochemical, Corynebacterium sp. No. K-106 (ATCC 31,088)
# Protocol: (§5) The purified enzyme solution (10 μl) obtained above (3) was mixed with 25 μmoles of a substrate (Ca-25DKG or 5KF) and 3.0 ml of 0.01M TB (pH 7) containing 15 μmoles of NADPH and the mixture was allowed to react at 30° C. for 60 minutes. After the reaction, the reaction mixture was analyzed by paper chromatography (developing solvent; phenol:formic acid:water=75:4:25, chromogenic agent; AHF solution, prepared by dissolving 0.93 g of anilin and 1.66 g of phthalic acid in 100 ml of water-saturated n-butanol and heating at 105° C. for 2 minutes) and by gas chromatography (column; SE-52, carrier gas: Helium, sample; trimethylsilylated derivative). […] In Table 1, the results of quantitative determination of the products by gas chromatography are shown.
# as §2
# [6] = system: 25DKG-Rase derived from Strain T-13; test: Substrate specificity by product formation, enzyme from T-13; format: biochemical, Corynebacterium sp. No. T-13 (ATCC 31,089)
# Protocol: as §5, §2
# [7] = system: 25DKG-Rase derived from Strain K-106; test: Enzymatic activity of 25DKG-Rase obtained from K-106 (Example 2); format: biochemical, Corynebacterium sp. No. K-106 (ATCC 31,088); settings: enzyme from K-106, coenzyme NADH
# [8] = system: 25DKG-Rase derived from Strain T-13; test: Enzymatic activity of 25DKG-Rase obtained from T-13 (Example 2); format: biochemical, Corynebacterium sp. No. T-13 (ATCC 31,089); settings: enzyme from T-13, coenzyme NADH
smiles,measurement,setting,value
O=C(O)C(=O)[C@@H](O)[C@H](O)C(=O)CO [Ca-25DKG],Enzymatic activity,"[1]; 15 °C., pH 7",14 unit/ml
same,Enzymatic activity,"[1]; 25 °C., pH 7",29 unit/ml
same,Enzymatic activity,"[1]; 27.5 °C., pH 7",44 unit/ml
same,Enzymatic activity,"[1]; 30 °C., pH 7",54 unit/ml
same,Enzymatic activity,"[1]; 32.5 °C., pH 7",59 unit/ml
same,Enzymatic activity,"[1]; 35 °C., pH 7",64 unit/ml
same,Enzymatic activity,"[1]; 40 °C., pH 7",67 unit/ml
same,Enzymatic activity,"[1]; 45 °C., pH 7",44 unit/ml
same,Enzymatic activity,"[1]; 50 °C., pH 7",10 unit/ml
same,Activity of the purified enzyme solution (1 ml),"[1]; NADPH, 0.1M TB pH 7, 30° C.",54 units
same,Enzymatic activity,"[1]; pH 4.0, 3,3-dimethylglutaric acid buffer",1 unit/ml
same,Enzymatic activity,"[1]; pH 5.0, 3,3-dimethylglutaric acid buffer",22 unit/ml
same,Enzymatic activity,"[1]; pH 6.0, Good (PIPES) buffer",59 unit/ml
same,Enzymatic activity,"[1]; pH 6.5, Good (PIPES) buffer",57 unit/ml
same,Enzymatic activity,"[1]; pH 7.0, Good (PIPES) buffer",53 unit/ml
same,Enzymatic activity,"[1]; pH 7.0, Tris buffer",54 unit/ml
same,Enzymatic activity,"[1]; pH 7.5, Tris buffer",44 unit/ml
same,Enzymatic activity,"[1]; pH 8.0, Tris buffer",32 unit/ml
same,Enzymatic activity,"[1]; pH 8.5, Tris buffer",11 unit/ml
same,Enzymatic activity,"[1]; pH 9.0, Tris buffer",7 unit/ml
same,Concentration of the product,[2],845 µg/mL
same,Enzymatic activity (relative activity),"[3]; K-106, 22 °C., pH 7.0",46
same,Enzymatic activity (relative activity),"[3]; K-106, 25 °C., pH 7.0",69
same,Enzymatic activity (relative activity),"[3]; K-106, 28 °C., pH 7.0",86
same,Enzymatic activity (relative activity),"[3]; K-106, 30 °C., pH 7.0",100
same,Enzymatic activity (relative activity),"[3]; K-106, 35 °C., pH 7.0",115
same,Enzymatic activity (relative activity),"[3]; K-106, 40 °C., pH 7.0",119
same,Enzymatic activity (relative activity),"[3]; K-106, 45 °C., pH 7.0",93
same,Enzymatic activity (relative activity),"[3]; K-106, 50 °C., pH 7.0",44
same,Enzymatic activity (relative activity),"[3]; K-106, pH 4.0, 30° C.",1
same,Enzymatic activity (relative activity),"[3]; K-106, pH 5.0, 30° C.",48
same,Enzymatic activity (relative activity),"[3]; K-106, pH 6.0, 30° C.",103
same,Enzymatic activity (relative activity),"[3]; K-106, pH 7.0, 30° C.",100
same,Enzymatic activity (relative activity),"[3]; K-106, pH 8.0, 30° C.",70
same,Enzymatic activity (relative activity),"[3]; K-106, pH 9.0, 30° C.",6
same,Enzymatic activity per protein,"[3]; enzyme from Strain K-106, NADPH",95 units/mg protein
same,Enzymatic activity,"[3]; enzyme from Strain K-106, purified enzyme solution, NADPH",23.8 units/ml
same,Enzymatic activity (relative activity),"[4]; T-13, 22 °C., pH 7.0",64
same,Enzymatic activity (relative activity),"[4]; T-13, 25 °C., pH 7.0",79
same,Enzymatic activity (relative activity),"[4]; T-13, 28 °C., pH 7.0",92
same,Enzymatic activity (relative activity),"[4]; T-13, 30 °C., pH 7.0",100
same,Enzymatic activity (relative activity),"[4]; T-13, 35 °C., pH 7.0",115
same,Enzymatic activity (relative activity),"[4]; T-13, 40 °C., pH 7.0",133
same,Enzymatic activity (relative activity),"[4]; T-13, 45 °C., pH 7.0",128
same,Enzymatic activity (relative activity),"[4]; T-13, 50 °C., pH 7.0",92
same,Enzymatic activity (relative activity),"[4]; T-13, pH 4.0, 30° C.",1
same,Enzymatic activity (relative activity),"[4]; T-13, pH 5.0, 30° C.",65
same,Enzymatic activity (relative activity),"[4]; T-13, pH 6.0, 30° C.",104
same,Enzymatic activity (relative activity),"[4]; T-13, pH 7.0, 30° C.",100
same,Enzymatic activity (relative activity),"[4]; T-13, pH 8.0, 30° C.",64
same,Enzymatic activity (relative activity),"[4]; T-13, pH 9.0, 30° C.",19
same,Enzymatic activity per protein,"[4]; enzyme from Strain T-13, NADPH",89 units/mg protein
same,Enzymatic activity,"[4]; enzyme from Strain T-13, purified enzyme solution, NADPH",15.1 units/ml
same,product formed (substrate specificity),[5],produced only Ca-2KLG
same,product formed (substrate specificity),[6],produced only Ca-2KLG
same,enzymatic activity using NADH as the coenzyme,[7],≤ 0.1 unit/ml
same,enzymatic activity using NADH as the coenzyme,[8],≤ 0.1 unit/ml
